This passage reports Ki results from ChEMBL document CHEMBL1131964, “Preparation and receptor binding affinities of cyclic C-terminal neurotensin (8-13) and (9-13) analogues” (Bioorg Med Chem Lett, 1999).

The Ki is the dissociation constant of the complex between target and ligand, obtained from inhibition or displacement.

For the assay, the target named is Neurotensin receptor (Homo sapiens, UniProt O95665+P30989). Kind of assay: Binding ability to compete with [125I]Tyr3-NT (0.15 nM) for human NT receptors cloned in CHO cells. Type of assay: cell-based.
The compound `CC[C@@H](C)[C@@H](NC(=O)[C@@H]1Cc2ccc(cc2)OCCCCCC(=O)N2CCC[C@H]2C(=O)N1)C(=O)N[C@@H](CC(C)C)C(=O)O` yielded a Ki above 2000 nM.

As for `CC[C@@H](C)[C@@H](NC(=O)[C@@H]1Cc2ccc(cc2)OCCCCCC(=O)N[C@H](CCCN=C(N)N)C(=O)N2CCC[C@H]2C(=O)N1)C(=O)N[C@@H](CC(C)C)C(=O)O`, the Ki is recorded as 450 nM. The figure for `CC[C@H](C)[C@H](NC(=O)[C@H](Cc1ccc(O)cc1)NC(=O)[C@@H]1CCCN1C(=O)[C@@H](N)CCCN=C(N)N)C(=O)N[C@@H](CC(C)C)C(=O)O` is 28 nM.
